Measurements: patent US20110306606A1, “NOVEL 2,6-SUBSTITUTED-3-NITROPYRIDINE DERIVATIVE, METHOD FOR PREPARING SAME, AND PHARMACEUTICAL COMPOSITION INCLUDING SAME” (priority 2008, published 2011)
Several values for one entry are separate records, joined by “and”; a condition that tells them apart may be missing. Equal values may be shown once. Read-outs that look alike come from different tables or passages of the source.

What was measured:
[1] = system: Osteoblasts (Calvarial cells); test: Alkaline phosphatase (ALP) activity in osteoblasts (Calvarial cells); format: cell-based, mice; details: 1 μM compound, 3 days; for activity at 1 µM: Mus musculus, 72 h, Calvarial cell, read-out: ALP activity (1 μM, % of Control) Calvarial cell
Method in brief: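 Primary calvarial osteoblasts or MC3T3-E1 cells in α-MEM with 10% FBS were treated with 1 μM compound, against a 0.1% DMSO vehicle. Cell lysates were incubated with p-nitrophenylphosphate at 37° for 30 minutes and read at 405 nm. ALP activity was expressed as p-nitrophenol/μg protein/min and reported as % change versus vehicle.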

[2] = system: Osteoblasts (Calvarial cells); details: ICR, mouse, 72 h, 1 μM
[3] = system: formation of osteoclasts in co-culture of bone marrow cells and osteoblasts; test: Osteoclastogenesis inhibition via co-culture system (TRAP staining); format: cell-based, mice; details: 1 μM compound, 7 days co-culture, TRAP-positive multinucleated osteoclasts vs vehicle control; for inhibition at 1 µM: Mus musculus, Osteoclast, 168 h
Protocol: Osteoclastogenesis inhibitory effects of the compounds of the present invention were evaluated via a co-culture system (Reference: Endocrinology 137(1996), 2187 to 2190, E. Jimi et al.). A specific experimental method is as follows.
1) Preparation of Bone Marrow Cells and Osteoblasts
Femora and tibia were aseptically dissected from 6 to 8-week-old male ddY mice to harvest bone marrow cells by a conventional method using a syringe. In brief, tissues were removed from the dissected bone, the bone ends were cut off with scissors, and the bone marrow was isolated by pushing a medium-containing syringe (23G) against the one end of the cut bone. The isolated bone marrow was subjected to repeated piston movement of a syringe such that single cells were obtained (Reference: Endocrinology 123(1988), 2600 to 2602, Takahashi et al.). After removal of red blood cells within the bone marrow, the bone marrow cells recovered by centrifugation were placed in an α-MEM supplemented with 10% fetal bovine serum (FBS), followed by counting of nucleated cells and then were immediately used for a co-culture system.
2) Osteoclastogenesis Inhibition Experiment Via Co-Culture System
As the medium used for a co-culture system, a differentiation medium with the addition of differentiation factors 1α,25-dihydroxyvitamin D3 (10^−8M) and dexamethasone (10^−8M) to a-MEM supplemented with 10% FBS was used for the induction of osteoclastogenesis. First, the compounds dissolved in dimethyl sulfoxide (DMSO) at a concentration of 1 mM were diluted to 2 μM using the above-mentioned differentiation medium. As a vehicle control group, 0.2% (v/v) DMSO was added to the medium. 100 μL/well of each medium was added to 96-well plates. In addition, the above prepared bone marrow cells and osteoblasts were plated onto 96-well plates at a density of 1×10^5 cells/50 μL/well and 3×10^3 cells/50 μL/well, respectively. The total volume/well was 200 μL and the final compound concentration was 1 μM. The control group was 0.1% DMSO. The cells were cultured with exchange of the culture media with fresh media containing differentiation factors and test materials at an interval of 2 to 3 days.
7 days after culturing of cells, the formation of multinucleated osteoclasts was confirmed by microscopic examination, the medium was removed from the wells and then the cells were fixed in a 10% phosphate-buffered formalin solution. The degree of formation of mature osteoclasts was measured taking advantage of the characteristics of osteoclasts showing a positive reaction to a tartrate-resistant acid phosphatase (TRAP) staining solution. The TRAP staining solution was prepared in a manner such that naphthol AS-MS phosphate as a substrate and a coloring agent (Fast Red Violet LB salt) were dissolved in N,N-dimethylformamide, and a 0.1N NaHCO3 buffer solution containing 50 mM of tartaric acid was added thereto. Among the TRAP-positive cells under a light microscope, multinucleated osteoclasts having 6 to 7 nuclei were regarded as mature osteoclasts.
The degree of inhibition of osteoclastogenesis was calculated according to the following equation 1. The results are summarized in Table 27 below (Experiments were carried out for 4 wells/experimental group (n=4), and the results are given in terms of mean±standard deviation)
Inhibition of osteoclastogenesis(%)=(1−numbers of osteoclasts observed in experimental group/numbers of osteoclasts observed in vehicle control group)×100(%) [Equation 1]

[4] = system: Osteoblasts (Calvarial cells); test: Cytotoxicity test (MTT); details: 1 μM compound, 72 hours, in comparison with vehicle control

With `Cc1ccc(Nc2nc(N3CCC(N)CC3)ccc2[N+](=O)[O-])cc1` [Compound 13, 2-(4-methylphenylamino)-6-(4-aminopiperidino)-3-nitropyridine] the activity at 1 µM [1] was 115%, the “Cell viability (%) Calvarial cell” value [2] was 97% and the inhibition at 1 µM [3] was 92%.

For `CC(C)(C)c1ccc(Nc2nc(N3CCC(N)CC3)ccc2[N+](=O)[O-])cc1` [Compound 43, 2-[4-(t-butyl)phenylamino]-6-(4-aminopiperidino)-3-nitropyridine], the activity at 1 µM [1] was 121%, the “Cell viability (%) Calvarial cell” value [2] was 114% and the inhibition at 1 µM [3] was 100%.

In the case of `CC(C)CNc1ccc([N+](=O)[O-])c(Nc2ccc(N)cc2)n1` [Compound 59, 2-[4-(amino)phenylamino]-6-(isobutylamino)-3-nitropyridine], the activity at 1 µM [1] is reported as 115%, the “Cell viability (%) Calvarial cell” value [2] is reported as 99% and the inhibition at 1 µM [3] is reported as 81%.

With `CC(=O)c1cccc(Nc2nc(NC(C)C)ccc2[N+](=O)[O-])c1` [Compound 97, 2-(3-acetylphenylamino)-6-(isopropylamino)-3-nitropyridine] the activity at 1 µM [1] was 188%, the “Cell viability (%) Calvarial cell” value [2] was 114% and the inhibition at 1 µM [3] was 80%.

`CC(=O)c1cccc(Nc2nc(N3CCNCC3)ccc2[N+](=O)[O-])c1` [Compound 106, 2-(3-acetylphenylamino)-6-(piperazin-1-yl)-3-nitropyridine] was tested, and the activity at 1 µM [1] was 116%, the “Cell viability (%) Calvarial cell” value [2] was 81% and the inhibition at 1 µM [3] was 87%.

`O=[N+]([O-])c1ccc(N2CCNCC2)nc1Nc1ccc(N2CCOCC2)cc1` [Compound 120, 2-(4-morpholinophenylamino)-6-(piperazin-1-yl)-3-nitropyridine] was tested, and the activity at 1 µM [1] was 115%, the “Cell viability (%) Calvarial cell” value [2] was 94% and the inhibition at 1 µM [3] was 63%.

`NC1CCN(c2ccc([N+](=O)[O-])c(Nc3ccc(N4CCOCC4)cc3)n2)CC1` [Compound 121, 2-(4-morpholinophenylamino)-6-(4-aminopiperidino)-3-nitropyridine] was tested, and the activity at 1 µM [1] was 127%, the “Cell viability (%) Calvarial cell” value [2] was 100% and the inhibition at 1 µM [3] was 89%.

`CNc1ccc([N+](=O)[O-])c(Nc2ccc(-c3csc(C)n3)cc2)n1` [Compound 132, 2-[4-(2-methylthiazol-4-yl)phenylamino]-6-(methylamino)-3-nitropyridine] was tested, and the activity at 1 µM [1] was 198%, the “Cell viability (%) Calvarial cell” value [2] was 101% and the inhibition at 1 µM [3] was 80%.

For `Cc1nc(-c2ccc(Nc3nc(N4CCC(O)CC4)ccc3[N+](=O)[O-])cc2)cs1` [Compound 135, 2-[4-(2-methylthiazol-4-yl)phenylamino]-6-(4-hydroxypiperidino)-3-nitropyridine], the activity at 1 µM [1] was 113%, the “Cell viability (%) Calvarial cell” value [2] was 106% and the inhibition at 1 µM [3] was 93%.

In the case of `Cc1nc(-c2ccc(Nc3nc(NCc4cccnc4)ccc3[N+](=O)[O-])cc2)cs1` [Compound 138, 2-[4-(2-methylthiazol-4-yl)phenylamino]-6-[(3-pyridyl)methylamino]-3-nitropyridine], the activity at 1 µM [1] is reported as 121%, the “Cell viability (%) Calvarial cell” value [2] is reported as 94% and the inhibition at 1 µM [3] is reported as 98%.

`Cc1nc(-c2ccc(Nc3nc(NCc4ccncc4)ccc3[N+](=O)[O-])cc2)cs1` [Compound 139, 2-[4-(2-methylthiazol-4-yl)phenylamino]-6-[(4-pyridyl)methylamino]-3-nitropyridine] was tested, and the activity at 1 µM [1] was 122%, the “Cell viability (%) Calvarial cell” value [2] was 95% and the inhibition at 1 µM [3] was 99%.

For `Cc1nc(-c2ccc(Nc3nc(N4CCOCC4)ccc3[N+](=O)[O-])cc2)cs1` [Compound 145, 2-[4-(2-methylthiazol-4-yl)phenylamino]-6-morpholino-3-nitropyridine], the activity at 1 µM [1] was 117%, the “Cell viability (%) Calvarial cell” value [2] was 96% and the inhibition at 1 µM [3] was 94%.

In the case of `CC(C)CNc1ccc([N+](=O)[O-])c(Nc2ccc(N3CCNCC3)c(F)c2)n1` [Compound 217, 2-[(3-fluoro-4-piperazino)phenylamino]-6-(isobutylamino)-3-nitropyridine], the “Cell viability (%) Calvarial cell” value [4] is reported as 92%, the “ALP activity (1 μM, % of Control) Calvarial cell” value [1] is reported as 119 % of Control and the “Osteoclastogenesis inhibition (%) 1 μM” value [3] is reported as 94%.

With `CNc1ccc([N+](=O)[O-])c(Nc2ccc(N3CCCCC3)c(F)c2)n1` [Compound 223, 2-[(3-fluoro-4-piperidino)phenylamino]-6-(methylamino)-3-nitropyridine] the “Cell viability (%) Calvarial cell” value [4] was 100%, the “ALP activity (1 μM, % of Control) Calvarial cell” value [1] was 247 % of Control and the “Osteoclastogenesis inhibition (%) 1 μM” value [3] was 82%.

With `CC(C)CNc1ccc([N+](=O)[O-])c(Nc2ccc(N3CCCCC3)c(F)c2)n1` [Compound 225, 2-[(3-fluoro-4-piperidino)phenylamino]-6-(isobutylamino)-3-nitropyridine] the “Cell viability (%) Calvarial cell” value [4] was 90%, the “ALP activity (1 μM, % of Control) Calvarial cell” value [1] was 150 % of Control and the “Osteoclastogenesis inhibition (%) 1 μM” value [3] was 60%.

With `CC1=NCCN1c1ccc([N+](=O)[O-])c(Nc2ccc(N3CCCCC3)c(F)c2)n1` [Compound 227, 2-[(3-fluoro-4-piperidino)phenylamino]-6-[(2-methyl-4,5-dihydro)imidazol-1-yl]-3-nitropyridine] the “Cell viability (%) Calvarial cell” value [4] was 103%, the “ALP activity (1 μM, % of Control) Calvarial cell” value [1] was 122 % of Control and the “Osteoclastogenesis inhibition (%) 1 μM” value [3] was 65%.

`O=[N+]([O-])c1ccc(NCc2cccnc2)nc1Nc1ccc(N2CCCCC2)c(F)c1` [Compound 229, 2-[(3-fluoro-4-piperidino)phenylamino]-6-[(3-pyridyl)methylamino]-3-nitropyridine] was tested, and the “Cell viability (%) Calvarial cell” value [4] was 104% and 125%, the “ALP activity (1 μM, % of Control) Calvarial cell” value [1] was 114 % of Control and the “Osteoclastogenesis inhibition (%) 1 μM” value [3] was 97%.

In the case of `O=[N+]([O-])c1ccc(NCc2ccncc2)nc1Nc1ccc(N2CCCCC2)c(F)c1` [Compound 230, 2-[(3-fluoro-4-piperidino)phenylamino]-6-[(4-pyridyl)methylamino]-3-nitropyridine], the “Cell viability (%) Calvarial cell” value [4] is reported as 101%, the “ALP activity (1 μM, % of Control) Calvarial cell” value [1] is reported as 120 % of Control and the “Osteoclastogenesis inhibition (%) 1 μM” value [3] is reported as 93%.

`CC(C)(C)Nc1ccc([N+](=O)[O-])c(Nc2ccc(N3CCCCC3)c(F)c2)n1` [Compound 231, 2-[(3-fluoro-4-piperidino)phenylamino]-6-(t-butylamino)-3-nitropyridine] was tested, and the “Cell viability (%) Calvarial cell” value [4] was 112%, the “ALP activity (1 μM, % of Control) Calvarial cell” value [1] was 121 % of Control and the “Osteoclastogenesis inhibition (%) 1 μM” value [3] was 82%.

`O=[N+]([O-])c1ccc(N2CCOCC2)nc1Nc1ccc(N2CCCCC2)c(F)c1` [Compound 235, 2-[(3-fluoro-4-piperidino)phenylamino]-6-morpholino-3-nitropyridine] was tested, and the “Cell viability (%) Calvarial cell” value [4] was 105%, the “ALP activity (1 μM, % of Control) Calvarial cell” value [1] was 121 % of Control and the “Osteoclastogenesis inhibition (%) 1 μM” value [3] was 86%.

In the case of `CNc1ccc([N+](=O)[O-])c(Nc2ccc(N3CCC(O)CC3)c(F)c2)n1` [Compound 236, 2-{[3-fluoro-4-(4-hydroxypiperidino)]phenylamino}-6-(methylamino)-3-nitropyridine], the “Cell viability (%) Calvarial cell” value [4] is reported as 91%, the “ALP activity (1 μM, % of Control) Calvarial cell” value [1] is reported as 209 % of Control and the “Osteoclastogenesis inhibition (%) 1 μM” value [3] is reported as 76%.

With `CN1CCN(c2ccc([N+](=O)[O-])c(Nc3ccc(N4CCC(O)CC4)c(F)c3)n2)CC1` [Compound 244, 2-{[3-fluoro-4-(4-hydroxypiperidino)]phenylamino}-6-(4-methylpiperazin-1-yl)-3-nitropyridine] the “Cell viability (%) Calvarial cell” value [4] was 99%, the “ALP activity (1 μM, % of Control) Calvarial cell” value [1] was 118 % of Control and the “Osteoclastogenesis inhibition (%) 1 μM” value [3] was 62%.
